≈ marks a conversion by molar mass, not a printed value.
Tests used:
gastric acid secretion = experiment: Assay of the inhibition of gastric acid secretion by using pylorus ligature (Shay et al.); assay type: in vivo, Wistar rats; conditions: for inhibition at 10 mg/kg: read-out: % Inhibition in the amount of the acid at a dose of 10 mg/kg p.o. (pretreatment: 30 min)
Experimental: 3) Assay of the inhibition of gastric acid secretion -by using pylorus ligature
[Shay et al., Gastroenterology, 5, 43-61 (1945)]
Before ligating the pylorus the test compounds suspended with Tween were given orally at a volume of 0.5 ml per […] of body weight to female Wistar rats fasted previously for 20 hours. The animals were sacrificed 4 hours after the operation, and the amount of the acid in the stomach was measured by titration with 0.01N sodium hydroxide solution in the presence of phenolphtalein indicator. The pH value of the content of stomach was measured by using a pH-meter (Radelkis, Type OP-211/1).

[1] = tested on: gastric injuries induced by acidic alcohol; experiment: Assay of gastric injuries induced by acidic alcohol (Robert); assay type: in vivo, rats; conditions: for inhibition at 10 mg/kg / ED50: Rattus norvegicus, po, pretreatment 30 min; for inhibition at 10 mg/kg: read-out: % Inhibition at a dose of 10 mg/kg p.o. (pretreatment: 30 min); for ED50 / ED₅₀ p.o. (pretreatment: 30 min): haemorrhagic lesions after acidic alcohol, female rats; for ED50: read-out: ED₅₀ p.o. (pretreatment: 30 min)
Experimental: 1) Assay of gastric injuries induced by acidic alcohol [A. Robert, Gastroenterology, 77, 761-767 (1979)] Female rats weighing about 120 to 150 g fasted for 24 hours were used in this test. Test compounds suspended with Tween 80 were given orally to the animals through an intragastric tube. After a certain period (pretreatment time) acidic alcohol was given through the intragastric tube at a dose or 0.5 ml per 100 g of body weight. The animals were sacrificed after 1 hour, their stomach was removed and incised along the great curve. The length of the reddish-brown strips (haemorrhagic lesions) was measured and the mean total length per stomach was calculated. The biological activity of the test compounds was given compared to the control group.

[2] = tested on: chronic ulcer model induced by acetic acid; experiment: Assay of a chronic ulcer model induced by acetic acid (Tagaki et al); assay type: in vivo, rats; conditions: from day 5 to day 10 after operation, sacrificed day 15
Experimental: 2)Assay of a chronic ulcer model induced by acetic acid
The assay was carried out in the following manner. Abdominal wall of femal rats previously fasted for 24 hours was incised under ether anaesthesia. A 20% solution of acetic acid (25 µl) was injected to the subserosus layer of the glandular part of the stomach near the pylorus. Thereafter the abdominal wall was closed and the animal was kept on normal diet, by providing feed and water ad libitum. The treatment was started 5 days after the operation and continued until the 10th day by administering the test compound once a day The animals were sacrificed 15 days after the operation and their stomach was removed. The extent of the ulcer was determined by measuring the diameter of the necrotic regions and calculating their total area. The curative effect of the tested compounds was calculated by the following formula in %: [formula]

Campylobacter pylori = experiment: Activity against Campylobacter pylori by agar diffusion and agar dilution methods; assay type: cell-based; conditions: Helicobacter pylori; Campylobacter pylori cultures isolated from 5 different ulcerous patients; read-out: MIC (minimal inhibitory concentration)
Experimental: The activity of the compounds of formula (I) against Campylobacter pylori was investigated by agar diffusion and agar dilution methods. The experiments were carried out with Campylobacter pylori cultures isolated from 5 different ulcerous patients.

[3] = Rattus norvegicus, po, 10 mg/kg p.o., pretreatment 30 min, acid titrated 4 hours after pylorus ligature
[4] = 10 mg/kg p.o., compared to the control group

Molecule | inhibition at 10 mg/kg (gastric acid secretion; [3]) [%] | inhibition at 10 mg/kg [1, 4] [%] | ED50 [1] [mg/kg] | also measured
O=C(O)/C=C/Sc1ccccc1 [G, magnesium bis[3-phenylthio-2(E)-propenoate]] | 16 | – | – | –
O=C(O)/C=C\S(=O)(=O)c1ccccc1 [Compound E, 3-phenylsulfonyl-2(Z)-propenoic acid] | – | 13 | – | –
O=C(O)/C=C/S(=O)(=O)c1ccccc1 [H, magnesium bis[3-phenylsulfonyl-2(E)-propenoate]hydrate] | 63 | 96 | 3.2 | ED50 (gastric acid secretion; Rattus norvegicus, po, pretreatment 30 min, gastric acid secretion, pylorus ligature, 4 hours after operation, read-out: ED₅₀ p.o. (pretreatment: 30 min)): 10 mg/kg; % Curative effect ([2]; 30 mg/kg p.o. once a day): 27%
COC(=O)/C=C/S(=O)(=O)c1ccccc1 [I, methyl 3-phenylsulfonyl-2(E)-propenoate] | 21 | 98 | – | % Curative effect ([2]; 30 mg/kg p.o. once a day): 73%; MIC (Campylobacter pylori): 250 to 270 mg/L (≈ 1100 to 1190 µM)
O=C(O)/C=C/Sc1ccccc1 [B, 3-phenylthio-2(E)-propenoic acid] | – | – | 31 | –
Sucralfat [reference compound] | – | – | – | ED₅₀ p.o. (pretreatment: 30 min) [1]: 150 mg/kg; % Curative effect ([2]; 500 mg/kg p.o. once a day): 55%
O=C(O)/C=C/S(=O)(=O)c1ccccc1 [F, 3-phenylsulfonyl-2(E)-propenoic acid] | – | – | – | % Inhibition in the amount of the acid at a dose of 10 mg/kg p.o. (pretreatment: 30 min) (gastric acid secretion; 10 mg/kg p.o., acid titrated 4 hours after pylorus ligature): 48%; ED₅₀ p.o. (pretreatment: 30 min) (gastric acid secretion; p.o., gastric acid secretion, pylorus ligature, 4 hours after operation): 12.0 mg/kg; % Inhibition at a dose of 10 mg/kg p.o. (pretreatment: 30 min) [1, 4]: 86%; ED₅₀ p.o. (pretreatment: 30 min) [1]: 3.4 mg/kg; % Curative effect ([2]; 50 mg/kg p.o. once a day): 37%
O=C(O)/C=C\[S+]([O-])c1ccccc1 (stereo not drawn) [C, 3-phenylsulfinyl-2(Z)-propenoic acid] | 15 | 56 | – | –
O=C(O)/C=C/[S+]([O-])c1ccccc1 (stereo not drawn) [Compound D, 3-phenylsulfinyl-2(E)-propenoic acid] | 22 | 64 | 4.2 | –
